This note sets out measurements from article PMC4686831, “Identification of an allosteric binding site for RORγt inhibition” (Nature Communications, 2015).

Like-named read-outs stand apart in the source and are kept apart here.

For series [1], the system named is IL17a mRNA expression in EL4 cells. Kind of series: Quantitative IL17a RT-PCR in EL4 cells. It is filed as cell-based, mouse. To be noted: 10 μM, 24 h, vs DMSO, normalized to GAPDH. How it is done:
EL4 cells (Sigma-Aldrich) were grown in DMEM (Gibco). At 24 h after the cells were seeded onto a 12-well plate, the cells were treated with ligands 1–3 (from 10 mM stock in DMSO) or DMSO. After 24 h, the cells were collected and RNA was isolated using a RNeasy Plus Micro Kit (Qiagen) and reverse transcribed using the iScrip cDNA biosynthesis kit (Bio-Rad). Quantitative RT–PCR was performed to analyse mRNA levels of mouse IL17a levels using SYBR green technology (Bio-Rad) on a CFX Real-Time System (Bio-Rad). Primer sequences used for IL17a:[45] Fw: 5′-[…]-3′, Rev: 5′-[…]-3′ and Gapdh: Fw: 5′-[…]-3′, Rev: 5′-[…]-3′. The level of IL17a mRNA expression was normalized to that of Gapdh expression. All data are expressed as the mean±s.e.m. (n=6). Statistical analysis was performed using an one-way analysis of variance comparing against the DMSO control following Dunnett post hoc test.

Another series concerns the target T1, human RORγt LBD (Homo sapiens, UniProt P51449).
T1 construct: The human RORγt LBD used for the HTRF assay; made in house; host or cells: Escherichia coli BL21(DE3)
Description: HTRF / TR-FRET cofactor peptide recruitment assay. It is filed as biochemical. To be noted: Fig. 2a. As to the method:
The human RORγt LBD used for the HTRF assay was expressed as a His6-tag fusion protein from the pET15b expression vector in Escherichia coli BL21(DE3) cells. Cells transformed with this vector were grown in 2 × YT medium supplemented with ampicillin until an OD600=0.7 was reached. Protein expression was then induced with 0.1 mM isopropyl-b-d-thiogalactoside (IPTG). After incubation for 16 h at 16 °C, cell cultures were collected by centrifugation. The cells were lysed via sonication and the protein was purified via Ni^2+-affinity column chromatography.
The homogeneous TR-FRET assays were performed in triplicate with 20 nM His6-RORγt and 100 nM biotin labelled cofactor peptide. […] Assay buffer contained 100 mM HEPES (pH 7.5), 100 mM NaCl, 5 mM dithiothreitol (DTT) and 0.1% bovine serum albumin. The plates (white 384-well plates Greiner Bio-One) were incubated for 2 h at 4 °C before the FRET ratio was measured in a Tecan Infinite F500 plate reader. The data were analysed using Origin software.

The test system of series [2] is CD36 and FABP4 gene expression in MSCs. Set-up: dose or concentration left out as unconfirmed. To be noted: MRL-299, data not shown.
A further series has as its target FXR (Homo sapiens, UniProt Q96RI1). Description: Receptor reporter assay selectivity panel: FXR. Background: In a reporter assay the amount or activity of a reporter protein is the signal.
The target in a further series is AR (Homo sapiens, UniProt P10275). Description: Receptor reporter assay selectivity panel (Indigo Bioscience): AR.
Sequence of AR (P10275 whole entry): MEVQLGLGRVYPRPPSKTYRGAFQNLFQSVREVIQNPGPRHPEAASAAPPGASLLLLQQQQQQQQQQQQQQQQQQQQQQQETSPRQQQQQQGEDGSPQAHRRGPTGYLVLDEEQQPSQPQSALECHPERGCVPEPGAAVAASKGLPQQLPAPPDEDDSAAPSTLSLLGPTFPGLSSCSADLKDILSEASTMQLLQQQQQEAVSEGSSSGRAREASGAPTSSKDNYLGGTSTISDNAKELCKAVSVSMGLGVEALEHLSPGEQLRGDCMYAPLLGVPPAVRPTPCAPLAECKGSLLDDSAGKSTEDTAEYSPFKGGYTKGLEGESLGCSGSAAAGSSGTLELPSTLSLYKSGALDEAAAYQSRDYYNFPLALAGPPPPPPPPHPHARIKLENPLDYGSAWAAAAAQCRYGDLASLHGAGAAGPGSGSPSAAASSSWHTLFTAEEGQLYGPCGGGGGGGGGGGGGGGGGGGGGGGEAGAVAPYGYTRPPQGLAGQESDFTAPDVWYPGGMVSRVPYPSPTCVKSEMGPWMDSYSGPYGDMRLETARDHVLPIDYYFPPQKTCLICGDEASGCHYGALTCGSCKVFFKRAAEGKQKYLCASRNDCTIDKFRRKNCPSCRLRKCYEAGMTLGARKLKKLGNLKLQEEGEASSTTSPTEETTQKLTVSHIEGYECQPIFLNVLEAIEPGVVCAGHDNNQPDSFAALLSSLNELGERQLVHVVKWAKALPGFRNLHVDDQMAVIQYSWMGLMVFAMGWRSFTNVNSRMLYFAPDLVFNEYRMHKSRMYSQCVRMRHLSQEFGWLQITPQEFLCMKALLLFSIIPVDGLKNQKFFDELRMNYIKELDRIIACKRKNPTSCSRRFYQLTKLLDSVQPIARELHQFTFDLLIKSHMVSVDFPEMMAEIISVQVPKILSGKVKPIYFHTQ
A further series addresses TRa (Homo sapiens, UniProt P10827). Kind of series: Receptor reporter assay selectivity panel: TRa.
A further series concerns the target PPARg (Homo sapiens, UniProt P37231). Description: Receptor reporter assay selectivity panel: PPARg.
The target of the next series is TRb (Homo sapiens, UniProt P10828). Kind of series: Receptor reporter assay selectivity panel: TRb.
For series [3], the system named is IL-17 production in human PBMCs. Kind of series: PBMC Th17 polarization and IL-17 production assay. It is filed as cell-based. The note with it: 96 h, 4 days, mean±s.d., read-out: hPBMC IL17A IC50. How it is done: Test compounds were prepared as 10 mM stocks in DMSO and serially diluted 1:3 to provide an eight-concentration titration. […] Stimulatory cytokines were added to final concentrations of 25 ng ml^−1 IL-1B, 10 ng ml^−1 IL-23, 0.5 ng ml^−1 IL-2 and 10 ng ml^−1 IL-6 (all cytokines from R&D Systems). In addition, T-Activator CD3/28 Dynabeads (Invitrogen) were added to a concentration of 100,000 beads per ml. The stimulated cells were immediately dispensed into the assay plate containing serially diluted compound at a volume of 200 μl cells per well. Cell plates were then incubated at 37 °C and 5% CO2 for 4 days. Culture media (100 μl) was collected from each well and IL-17 expression was measured by enzyme-linked immunosorbent assay (R&D Systems) according to the manufacturer's instructions. Cell viability was assessed by the addition of 100 μl of CellTiter-Glo (Promega) to each well of the cell assay plate followed by luminescence detection on an Envision plate reader (PerkinElmer).

In another series the target is CAR2 (Homo sapiens, UniProt Q14994). Description: Receptor reporter assay selectivity panel: CAR2.
The target of another series is PR (Homo sapiens, UniProt P06401). Description: Receptor reporter assay selectivity panel: PR.
Sequence of PR (P06401 whole entry): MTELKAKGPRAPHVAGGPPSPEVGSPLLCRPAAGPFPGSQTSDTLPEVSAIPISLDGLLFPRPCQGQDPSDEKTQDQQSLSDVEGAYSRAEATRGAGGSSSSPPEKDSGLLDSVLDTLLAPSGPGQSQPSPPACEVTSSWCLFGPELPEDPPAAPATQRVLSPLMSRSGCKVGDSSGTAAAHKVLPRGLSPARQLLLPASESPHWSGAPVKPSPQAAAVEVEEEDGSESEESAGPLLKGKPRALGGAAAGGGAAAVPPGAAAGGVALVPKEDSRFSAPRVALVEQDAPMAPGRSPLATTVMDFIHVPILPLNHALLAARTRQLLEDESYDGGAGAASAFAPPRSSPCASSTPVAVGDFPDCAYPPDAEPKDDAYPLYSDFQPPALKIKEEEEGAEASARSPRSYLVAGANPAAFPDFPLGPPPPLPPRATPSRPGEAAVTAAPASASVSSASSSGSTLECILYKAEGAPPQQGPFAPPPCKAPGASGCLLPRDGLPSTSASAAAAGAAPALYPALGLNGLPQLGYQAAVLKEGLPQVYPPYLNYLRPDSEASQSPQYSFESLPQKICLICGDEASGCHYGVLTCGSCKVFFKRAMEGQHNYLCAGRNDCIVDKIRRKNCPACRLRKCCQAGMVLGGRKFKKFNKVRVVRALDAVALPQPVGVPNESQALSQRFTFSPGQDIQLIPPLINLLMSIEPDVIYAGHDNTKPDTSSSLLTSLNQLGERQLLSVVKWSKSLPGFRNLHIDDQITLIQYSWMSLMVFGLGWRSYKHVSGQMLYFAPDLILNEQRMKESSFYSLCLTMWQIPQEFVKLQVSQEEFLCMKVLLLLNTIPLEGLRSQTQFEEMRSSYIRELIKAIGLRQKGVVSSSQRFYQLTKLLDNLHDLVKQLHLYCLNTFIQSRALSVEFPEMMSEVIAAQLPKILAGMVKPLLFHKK
The target of a further series is AhR (Homo sapiens, UniProt P35869). Kind of series: Receptor reporter assay selectivity panel: AhR.
The next series has as its target LXRb (Homo sapiens, UniProt P55055). Description: Receptor reporter assay selectivity panel: LXRb.
Another series deals with PPARa (Homo sapiens, UniProt Q07869). Kind of series: Receptor reporter assay selectivity panel: PPARa.
Sequence of PPARa (Q07869 200-468 limits assumed): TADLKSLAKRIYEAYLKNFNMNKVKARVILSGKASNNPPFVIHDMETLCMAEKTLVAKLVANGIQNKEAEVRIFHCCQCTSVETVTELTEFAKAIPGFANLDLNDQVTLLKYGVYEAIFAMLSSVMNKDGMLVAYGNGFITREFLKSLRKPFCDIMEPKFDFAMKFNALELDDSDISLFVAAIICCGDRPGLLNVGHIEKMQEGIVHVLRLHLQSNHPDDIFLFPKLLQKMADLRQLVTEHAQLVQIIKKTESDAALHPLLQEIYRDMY
The target of the next series is MR (Homo sapiens, UniProt P08235). Description: Receptor reporter assay selectivity panel: MR.
Sequence of MR (P08235 whole entry): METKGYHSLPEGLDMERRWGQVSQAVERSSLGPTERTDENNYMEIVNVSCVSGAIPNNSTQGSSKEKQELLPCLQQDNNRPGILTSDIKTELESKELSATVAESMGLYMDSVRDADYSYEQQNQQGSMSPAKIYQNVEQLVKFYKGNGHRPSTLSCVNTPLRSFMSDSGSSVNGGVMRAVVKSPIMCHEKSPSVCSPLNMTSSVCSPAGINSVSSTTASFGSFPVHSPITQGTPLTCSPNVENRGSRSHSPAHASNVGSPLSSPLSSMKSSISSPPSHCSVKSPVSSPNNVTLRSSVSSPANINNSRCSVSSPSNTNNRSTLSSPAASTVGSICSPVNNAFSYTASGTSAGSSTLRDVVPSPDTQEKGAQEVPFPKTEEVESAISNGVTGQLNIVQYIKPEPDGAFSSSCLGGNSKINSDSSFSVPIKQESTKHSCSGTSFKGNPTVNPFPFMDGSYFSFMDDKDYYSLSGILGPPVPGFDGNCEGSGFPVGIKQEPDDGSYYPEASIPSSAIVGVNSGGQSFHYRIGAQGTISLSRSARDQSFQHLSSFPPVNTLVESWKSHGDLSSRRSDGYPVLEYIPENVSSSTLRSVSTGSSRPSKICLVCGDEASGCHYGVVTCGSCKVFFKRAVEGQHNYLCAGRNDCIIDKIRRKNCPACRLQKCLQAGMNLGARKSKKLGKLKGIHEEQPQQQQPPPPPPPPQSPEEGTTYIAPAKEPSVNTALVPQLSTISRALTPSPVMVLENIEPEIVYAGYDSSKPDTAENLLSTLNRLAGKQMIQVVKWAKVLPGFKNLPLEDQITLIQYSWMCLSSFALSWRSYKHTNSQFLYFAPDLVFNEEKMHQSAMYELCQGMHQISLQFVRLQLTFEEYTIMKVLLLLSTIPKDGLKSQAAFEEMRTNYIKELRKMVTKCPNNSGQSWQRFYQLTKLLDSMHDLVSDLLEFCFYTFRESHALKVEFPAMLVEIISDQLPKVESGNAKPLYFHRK
Series [4] relates to Human mesenchymal stem cells (MSCs). Description: Adipogenesis of human mesenchymal stem cells (PPARγ dependent). To be noted: read-out: IC50, inhibition of adipogenesis.
Another series deals with ERa (Homo sapiens, UniProt P03372). Kind of series: Receptor reporter assay selectivity panel: ERa.
In a further series the target is RARa (Homo sapiens, UniProt P10276). Kind of series: Receptor reporter assay selectivity panel: RARa.
In another series the target is CAR3 (Homo sapiens, UniProt Q14994). Description: Receptor reporter assay selectivity panel: CAR3.
In another series the target is CAR1 (Homo sapiens, UniProt Q14994). Description: Receptor reporter assay selectivity panel: CAR1.
In the next series the target is ERb (Homo sapiens, UniProt Q92731). Description: Receptor reporter assay selectivity panel: ERb.
The next series has as its target RXRb (Homo sapiens, UniProt P28702). Kind of series: Receptor reporter assay selectivity panel: RXRb.
A further series has as its target GR (Homo sapiens, UniProt P04150). Kind of series: Receptor reporter assay selectivity panel: GR.
Series [5] concerns adiponectin gene expression. Description: Adiponectin gene expression in MSCs. To be noted: read-out: IC50, inhibition of adiponectin gene expression.
The target of a further series is LXRa (Homo sapiens, UniProt Q13133). Description: Receptor reporter assay selectivity panel: LXRa.
Sequence of LXRa (Q13133 209-447 limits assumed): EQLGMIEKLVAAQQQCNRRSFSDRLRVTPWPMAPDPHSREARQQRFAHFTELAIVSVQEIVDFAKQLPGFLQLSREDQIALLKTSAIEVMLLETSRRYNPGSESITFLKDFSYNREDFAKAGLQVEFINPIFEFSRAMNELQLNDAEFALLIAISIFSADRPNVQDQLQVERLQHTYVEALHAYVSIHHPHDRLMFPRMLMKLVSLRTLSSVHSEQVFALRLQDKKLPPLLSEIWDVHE
The target of a further series is RXRa (Homo sapiens, UniProt P19793). Description: Receptor reporter assay selectivity panel: RXRa.
Sequence of RXRa (P19793 227-462 limits assumed): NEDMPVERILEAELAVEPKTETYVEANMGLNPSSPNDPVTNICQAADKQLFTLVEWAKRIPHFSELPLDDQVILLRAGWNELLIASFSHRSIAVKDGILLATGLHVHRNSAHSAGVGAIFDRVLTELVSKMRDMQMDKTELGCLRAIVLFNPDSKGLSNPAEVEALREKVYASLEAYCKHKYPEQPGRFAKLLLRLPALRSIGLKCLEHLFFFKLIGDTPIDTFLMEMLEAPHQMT
The target of a further series is RARb (Homo sapiens, UniProt P10826). Description: Receptor reporter assay selectivity panel: RARb.
A further series has as its target PPARd (Homo sapiens, UniProt Q03181). Description: Receptor reporter assay selectivity panel: PPARd.
A further series deals with VDR (Homo sapiens, UniProt P11473). Description: Receptor reporter assay selectivity panel: VDR.
Another series addresses T2, PXR (Homo sapiens, UniProt O75469).
T2 sequence (O75469 146-434 limits assumed): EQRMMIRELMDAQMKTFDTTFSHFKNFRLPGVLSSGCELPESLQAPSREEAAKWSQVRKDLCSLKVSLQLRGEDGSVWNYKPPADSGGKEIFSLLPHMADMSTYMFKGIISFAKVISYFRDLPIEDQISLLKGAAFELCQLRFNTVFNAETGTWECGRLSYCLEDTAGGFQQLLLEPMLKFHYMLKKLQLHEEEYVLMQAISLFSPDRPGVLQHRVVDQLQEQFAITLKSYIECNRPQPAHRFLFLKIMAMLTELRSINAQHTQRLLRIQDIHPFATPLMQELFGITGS
Description: Receptor reporter assay selectivity panel: PXR.

A further series addresses T3, RARg (Homo sapiens, UniProt P13631).
T3 sequence (P13631 185-419 limits assumed): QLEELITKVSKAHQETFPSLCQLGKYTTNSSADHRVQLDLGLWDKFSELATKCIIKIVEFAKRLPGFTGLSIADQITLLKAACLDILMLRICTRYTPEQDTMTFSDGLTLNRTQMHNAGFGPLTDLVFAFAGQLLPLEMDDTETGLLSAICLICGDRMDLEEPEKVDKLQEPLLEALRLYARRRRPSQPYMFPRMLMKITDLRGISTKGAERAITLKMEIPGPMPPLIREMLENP
Description: Receptor reporter assay selectivity panel: RARg.

The target of the next series is RXRg (Homo sapiens, UniProt P48443). Kind of series: Receptor reporter assay selectivity panel: RXRg.

Sequence of TRa (P10827 163-410 isoform P10827-2 limits assumed): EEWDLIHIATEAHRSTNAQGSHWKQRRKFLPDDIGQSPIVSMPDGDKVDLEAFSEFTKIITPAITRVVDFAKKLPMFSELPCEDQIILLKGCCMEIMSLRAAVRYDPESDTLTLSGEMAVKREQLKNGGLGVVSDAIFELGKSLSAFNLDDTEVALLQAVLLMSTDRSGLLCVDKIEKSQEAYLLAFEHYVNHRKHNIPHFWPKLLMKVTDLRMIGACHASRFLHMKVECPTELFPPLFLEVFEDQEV
Sequence of RXRb (P28702 296-533 limits assumed): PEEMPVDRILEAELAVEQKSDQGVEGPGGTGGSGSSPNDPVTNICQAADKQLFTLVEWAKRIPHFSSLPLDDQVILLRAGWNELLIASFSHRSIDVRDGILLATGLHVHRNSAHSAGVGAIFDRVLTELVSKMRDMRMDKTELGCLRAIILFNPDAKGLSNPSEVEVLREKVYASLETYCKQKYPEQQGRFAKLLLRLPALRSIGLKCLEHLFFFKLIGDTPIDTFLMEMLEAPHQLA
Sequence of PPARd (Q03181 171-441 limits assumed): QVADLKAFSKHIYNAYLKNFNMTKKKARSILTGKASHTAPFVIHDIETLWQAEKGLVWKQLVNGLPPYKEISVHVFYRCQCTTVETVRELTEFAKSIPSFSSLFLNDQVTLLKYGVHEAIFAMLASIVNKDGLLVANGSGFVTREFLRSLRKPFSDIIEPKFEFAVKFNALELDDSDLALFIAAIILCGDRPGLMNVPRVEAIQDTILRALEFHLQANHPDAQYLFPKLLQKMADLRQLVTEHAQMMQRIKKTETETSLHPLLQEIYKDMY
Sequence of PPARg (P37231 232-505 limits assumed): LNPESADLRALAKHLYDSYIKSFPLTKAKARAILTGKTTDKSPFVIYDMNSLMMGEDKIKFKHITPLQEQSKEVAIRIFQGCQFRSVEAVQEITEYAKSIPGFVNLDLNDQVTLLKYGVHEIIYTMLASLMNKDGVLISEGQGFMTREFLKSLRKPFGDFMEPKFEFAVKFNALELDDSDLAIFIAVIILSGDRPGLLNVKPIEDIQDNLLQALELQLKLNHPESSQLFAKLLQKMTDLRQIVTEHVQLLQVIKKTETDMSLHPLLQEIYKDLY
Sequence of LXRb (P55055 222-460 limits assumed): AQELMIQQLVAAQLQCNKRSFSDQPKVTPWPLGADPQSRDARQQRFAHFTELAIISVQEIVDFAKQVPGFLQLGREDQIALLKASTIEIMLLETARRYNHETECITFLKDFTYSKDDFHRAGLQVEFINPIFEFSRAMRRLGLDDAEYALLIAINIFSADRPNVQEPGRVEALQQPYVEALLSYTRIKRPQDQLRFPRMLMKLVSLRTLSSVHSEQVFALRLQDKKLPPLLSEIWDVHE
Description for AhR: (§1) * Receptor Reporter Assay Selectivity Panel- Assays were performed by Indigo Bioscience (State
(§2) College, PA) according to their established protocols. The AR, ER, GR, MR, and PR assays utilize full
(§3) length receptor constructs whereas all others are chimeric with the GAL4 DNA binding domain.
Description for CAR1: as §1, §2, §3
Description for CAR2: as §1, §2, §3
Description for CAR3: as §1, §2, §3
Description for ERa: as §1, §2, §3
Description for ERb: as §1, §2, §3
Description for FXR: as §1, §2, §3
Description for LXRa: as §1, §2, §3
Description for LXRb: as §1, §2, §3
Description for PPARa: as §1, §2, §3
Description for PPARd: as §1, §2, §3
Description for PPARg: as §1, §2, §3
Description for PXR: as §1, §2, §3
Description for RARa: as §1, §2, §3
Description for RARb: as §1, §2, §3
Description for RARg: as §1, §2, §3
Description for RXRa: as §1, §2, §3
Description for RXRb: as §1, §2, §3
Description for RXRg: as §1, §2, §3
Description for TRa: as §1, §2, §3
Description for TRb: as §1, §2, §3
Description for VDR: as §1, §2, §3

On to `O=C(O)c1ccc(-c2nn(C(=O)c3ccccc3C(F)(F)F)c3ccccc23)cc1` [MRL-058], for which, in series [1], the “IL17a mRNA levels” value is “significantly reduced”.
For the compound `CC(C)CCC[C@@H](C)[C@H]1CC[C@H]2[C@@H]3CC=C4C[C@@H](O)CC[C@]4(C)[C@H]3CC[C@]12C` [Cholesterol, cholesterol, reference compound], the “effect on interaction of RORγt-LBD with cofactor peptide” value at human RORγt LBD is “weak activator”.
Regarding `CN(CCOc1ccc(CC2SC(=O)NC2=O)cc1)c1ccccn1` (stereo not drawn) [Rosiglitazone, rosiglitazone, reference compound], in series [2], the “induction of CD36 gene expression” value amounted to 3 fold and the “induction of FABP4 gene expression” value was 2 fold.
In the case of `O=C(O)c1ccc(-c2nn(C(=O)c3ccccc3)c3ccccc23)cc1` [MRL-003], on human RORγt LBD (read-out: IC50, inhibition of coactivator binding (cofactor peptide recruitment)), the IC50 (usually the concentration at which inhibition is half-maximal) turned out to be 0.28 ± 0.117 µM. In addition, the “IL17a mRNA levels” value in series [1] was “did not reduce”.
For the compound `O=C(O)c1ccc(-c2nn(C(=O)c3c(Cl)cccc3C(F)(F)F)c3cccc(F)c23)c(F)c1` [MRL-299], the “induction of CD36 gene expression” value in [2] was “no induction”. In addition, the “induction of FABP4 gene expression” value in series [2] was “no induction”. Moreover, the 50% effective concentration (EC50) (as a rule, the midpoint of the concentration-response curve) on FXR was above 30 µM; at AR it was above 30 µM; on TRa it was above 30 µM; on PPARg it was 0.686 µM; at TRb, above 30 µM; on CAR2, above 30 µM. Besides, the EC50 at PR, on AhR, at LXRb, on PPARa, on MR and on ERa was above 30 µM throughout. For the same compound, the half-maximal effective concentration (EC50) on RARa, on CAR3, at ERb, at RXRb, at GR and at LXRa was above 30 µM each time. The concentration for a half-maximal effect (EC50) is above 30 µM on RXRa; above 30 µM at RARb; above 30 µM on PPARd; above 30 µM on VDR; 4.62 µM on PXR; 0.364 µM on RARg. The same compound showed an EC50 at RXRg above 30 µM. Further, the half-inhibitory concentration (IC50) on FXR is 13.6 µM; at AR it was 12 µM; on TRa, 4.49 µM; at PPARg it was 0.517 µM; at TRb it was 5.73 µM; in series [3], 0.0094 ± 0.0052 µM. Besides, the IC50 against PR is above 30 µM; against LXRb it was 21.5 µM; against PPARa, 19.1 µM; against MR, 20 µM; in series [4] (Homo sapiens, Mesenchymal stem cells), around 50 µM; against ERa, above 30 µM. Also, the IC50 on CAR1 is 16.7 µM; at ERb, 10.8 µM; against RXRb, 28 µM; against GR, 18.5 µM; in series [5] (Homo sapiens), around 30 µM; against LXRa, 23.2 µM. The 50% inhibitory concentration (IC50) against RXRa is 7.42 µM; at RARb, 12.3 µM; on PPARd, 28 µM; against VDR, above 30 µM; against PXR, above 30 µM; against RARg it was 3.11 µM. Besides, the “agonist maximum, % of rifampicin max” value at PXR (PXR, relative to rifampicin control) is listed as 63%. Further, the “agonist maximum, % of ATRA max” value on RARg (RARg, relative to ATRA control) is 20%.
`O=C(O)c1ccc(-c2nn(C(=O)c3c(Cl)cccc3C(F)(F)F)c3ccccc23)cc1` [MRL-871]: in series [3], the IC50 was determined as 0.0396 ± 0.018 µM. Further, the “IL17a mRNA levels” value in series [1] is recorded as “significantly reduced”.
Regarding `O=C(Nc1ccccc1)c1cc([N+](=O)[O-])ccc1Cl` [GW9662, reference compound], the IC50 in series [4] (human MSCs under adipogenic conditions, data not shown) amounted to 5.4 µM; in series [5] (human MSCs, data not shown), 1 µM.
